Source: patent US5482930A, “Anti-inflammatory composition and method with des-Tyr dynorphin and analogues” (The Regents of the University of California, priority 1993, dated 1996)
Where a name gives a salt, the structure may show the parent alone. Residues, ends and D or L forms follow the SMILES beside them.

Assays:
[1] = Blood pressure and oxygenation after i.v. dose; assay type: in vivo, rat; conditions: 0.2 mg/kg i.v.
[2] = system: thermal edema of the hind paw; test: Heat-induced swelling and edema of the rat hind paw (58° C. water, one minute); assay type: in vivo; conditions: for anti-inflammatory effect (FIG. 1): FIG. 1 legend; for ED50, reducing thermal edema: i.v., anesthetized rat, hind paw 58° C. water one minute
Description: In one bioassay, dynorphin A (2-17), synthesized by standard solid phase methods, was dissolved in sterile saline and injected intravenously via a branch of the femoral vein at various doses into an anesthetized rat. Ten minutes later a hind paw was immersed in 58° C. water for one minute. Thirty minutes after exposure to heat, the paw was removed at the ankle joint and weighed. The percent increase in weight of the heated paw relative to the unheated paw was taken as the index of inflammatory thermal edema. The general principles of this method have been discussed by Wei and Thomas, Ann. Rev. of Pharmacol. and Toxicol., 33, pp. 91-108 (1993).
Anesthetized rats were injected intravenously (i.v.) with saline (1 ml/kg) or naloxone hydrochloride ([…]) 5 minutes prior to i.v. injection with saline ([…]), dynorphin A (2-17) (0.5 mg/kg), or N-acetyldynorphin A (6-12 )-amide (3 mg/kg). Ten minutes after the second injection, the rat's hind paw was immersed in 58° C. water for one minute and 30 minutes later the animals were euthanized and the heated and unheated paw weights were measured. After saline/saline or naloxone HCl/saline, the percent increase in the weight of the heated paw, relative to the unheated paw, were 104±10% and 98±9%, respectively. The percent increases for the saline/dynorphin A (2-17) and naloxone HCl/dynorphin A (2-17) groups were 26±6% and 26±5%, respectively. The percent increases for the saline/N-acetyl-dynorphin A (6-12) amide and naloxone HCl/N-acetyl-dynorphin A (6-12) amide groups were 21±3% and 27±12%, respectively.

[3] = system: neurogenic inflammation; conditions: intravenous route; relative to saline-injected controls; cited from earlier work
[4] = Direct comparison of dynorphin A analogs with an amide or a carboxyl C-terminus (ED50, bioassay not given); assay type: in vivo; conditions: i.v.; amide versus carboxyl C-terminus
Description: Similar results were obtained for D-Ala^2 -dynorphin A (1-17) amide, with an ED50 value of 0.5 mg/kg i.v. versus a value of 1.0 mg/kg i.v. for D-Ala^2 -dynorphin A (1-17).

[5] = system: edema in the anesthetized rat's paw after thermal injury; conditions: 3.75 mg/kg administered intravenously; cited from earlier work

In the case of `CC[C@H](C)[C@H](NC(=O)[C@H](CCCNC(=N)N)NC(=O)[C@H](CCCNC(=N)N)NC(=O)[C@H](CC(C)C)NC(=O)[C@H](Cc1ccccc1)NC(=O)CNC(=O)CN)C(=O)N[C@@H](CCCNC(=N)N)C(=O)N1CCC[C@H]1C(=O)N[C@@H](CCCCN)C(=O)N[C@@H](CC(C)C)C(=O)N[C@@H](CCCCN)C(=O)N[C@@H](Cc1c[nH]c2ccccc12)C(=O)N[C@@H](CC(=O)O)C(=O)N[C@@H](CC(N)=O)C(=O)N[C@@H](CCC(N)=O)C(=O)O` [Embodiment NO:1, G-G-F-L-R-R-I-R-P-K-L-K-W-D-N-Q], the cyanosis / oxygenation [1] is reported as “no evidence of cyanosis”, the “effect on blood pressure” value [1] is reported as “slight fall in blood pressure” and the “duration of fall in blood pressure” value ([1]; then mean arterial pressure returned to baseline) is reported as 10 to 15 min.
In the case of dynorphin A (1-17), the “anti-inflammatory effect (FIG. 1)” value [2] is reported as “substantially lacking potency” and the “ED50, reducing thermal edema” value [2] is reported as 1.7 (1.2-2.4) mg/kg.
In the case of “Ac-RRIRPKL-NH2 [Embodiment NO:3, Ac-R-R-I-R-P-K-L-NH2]”, the “ED50, reducing thermal edema” value [2] is reported as 1.4 (0.6-3.7) mg/kg, the “percent increase in the weight of the heated paw, relative to the unheated paw” value (from here on “percent increase … relative to the unheated paw”) ([2]; naloxone HCl pretreatment, then peptide 3 mg/kg i.v.) is reported as 27±12% and the “antagonism of anti-inflammatory effect by naloxone” value ([2]; peptide 3 mg/kg i.v., naloxone 4 mg/kg i.v.) is reported as “not antagonized”. For the same molecule, the “percent increase … relative to the unheated paw” value ([2]; saline pretreatment, then peptide 3 mg/kg i.v.) was 21±3%.
For dynorphin A (1-10) amide, the “median effective dose (ED50) producing 50% inhibition of dye leakage” value [3] is given as 5.0 (3.5-7.2) mg/kg.
For D-Ala^2 -dynorphin A (2-17) amide, the ED50 [4] was 0.65 mg/kg.
D-Ala^2 -dynorphin A (1-17) amide showed an ED50 [4] of 0.5 mg/kg.
Work on D-Ala^2 -dynorphin A (2-17) yielded an ED50 [4] of 1.2 mg/kg.
With `C=CCN1CC[C@]23c4c5ccc(O)c4O[C@H]2C(=O)CC[C@@]3(O)[C@H]1C5` [naloxone HCl, naloxone hydrochloride] the “percent increase … relative to the unheated paw” value ([2]; naloxone HCl (4 ml/kg) i.v. then saline, no peptide) was 98±9%.
For dynorphin A (1-13), the “median effective dose (ED50) producing 50% inhibition of dye leakage” value [3] is given as 1.9 (1.5-2.4) mg/kg, the “prevention of edema after thermal injury” value [5] is given as “prevent edema” and the “anti-inflammatory effect (FIG. 1)” value [2] is given as “substantially lacking potency”. The “ED50, reducing thermal edema” value [2] was 3.2 (1.9-5.5) mg/kg.
D-Ala^2 -dynorphin A (1-17) showed an ED50 [4] of 1.0 mg/kg.
In the case of `CC[C@H](C)[C@H](NC(=O)[C@H](CCCNC(=N)N)NC(=O)[C@H](CCCNC(=N)N)NC(C)=O)C(=O)N[C@@H](CCCNC(=N)N)C(=O)N1CCC[C@H]1C(=O)N[C@@H](CCCCN)C(=O)N[C@H](CC(C)C)C(N)=O` [Embodiment NO:4, Ac-R-R-I-R-P-K-l-NH2] (HELM PEPTIDE1{[ac].R.R.I.R.P.K.[dL].[am]}$$$$V2.0), the “ED50, reducing thermal edema” value [2] is reported as 2.2 (1.2-4.1) mg/kg.
